Assay: xn = mol fraction of the nth substance listed

Oc1ccccc1Cl + Nc1ccccc1
101 kPa
Conditions | viscosity [mPa·s]
293.15 K, x1 = 0.1176 | 5.78
293.15 K, x1 = 0.2278 | 7.74
293.15 K, x1 = 0.3271 | 9.6
293.15 K, x1 = 0.3874 | 10.56
293.15 K, x1 = 0.4366 | 11.24
293.15 K, x1 = 0.4885 | 11.66
293.15 K, x1 = 0.5271 | 11.76
293.15 K, x1 = 0.5756 | 11.48
293.15 K, x1 = 0.6117 | 10.96
293.15 K, x1 = 0.7174 | 9.04
293.15 K, x1 = 0.8625 | 6.3
298 K, x1 = 0.1032 | 4.945
298 K, x1 = 0.2004 | 6.157
298 K, x1 = 0.3011 | 7.228
298 K, x1 = 0.4069 | 8.07
298 K, x1 = 0.5008 | 8.81
298 K, x1 = 0.6002 | 8
298 K, x1 = 0.7016 | 6.99
298 K, x1 = 0.7852 | 5.942
298 K, x1 = 0.9025 | 4.443
303 K, x1 = 0.1032 | 4.142
303 K, x1 = 0.2004 | 5.008
303 K, x1 = 0.3011 | 5.792
303 K, x1 = 0.4069 | 6.329
303 K, x1 = 0.5008 | 6.859
303 K, x1 = 0.6002 | 6.232
303 K, x1 = 0.7016 | 5.602
303 K, x1 = 0.7852 | 4.74
303 K, x1 = 0.9025 | 3.702
303.15 K, x1 = 0.1176 | 4.05
303.15 K, x1 = 0.2278 | 5.06
303.15 K, x1 = 0.3271 | 5.93
303.15 K, x1 = 0.3874 | 6.39
303.15 K, x1 = 0.4366 | 6.72
303.15 K, x1 = 0.4885 | 6.93
303.15 K, x1 = 0.5271 | 6.95
303.15 K, x1 = 0.5756 | 6.86
303.15 K, x1 = 0.6117 | 6.7
303.15 K, x1 = 0.7174 | 5.8
303.15 K, x1 = 0.8625 | 4.31
308 K, x1 = 0.1032 | 3.556
308 K, x1 = 0.2004 | 4.265
308 K, x1 = 0.3011 | 4.728
308 K, x1 = 0.4069 | 4.979
308 K, x1 = 0.5008 | 5.417
308 K, x1 = 0.6002 | 4.922
308 K, x1 = 0.7016 | 4.511
308 K, x1 = 0.7852 | 3.826
308 K, x1 = 0.9025 | 3.108
313 K, x1 = 0.1032 | 3.11
313 K, x1 = 0.2004 | 3.638
313 K, x1 = 0.3011 | 3.9
313 K, x1 = 0.4069 | 4.024
313 K, x1 = 0.5008 | 4.382
313 K, x1 = 0.6002 | 3.966
313 K, x1 = 0.7016 | 3.75
313 K, x1 = 0.7852 | 3.283
313 K, x1 = 0.9025 | 2.744
313.15 K, x1 = 0.1176 | 2.945
313.15 K, x1 = 0.2278 | 3.54
313.15 K, x1 = 0.3271 | 3.99
313.15 K, x1 = 0.3874 | 4.2
313.15 K, x1 = 0.4366 | 4.33
313.15 K, x1 = 0.4885 | 4.39
313.15 K, x1 = 0.5271 | 4.4
313.15 K, x1 = 0.5756 | 4.34
313.15 K, x1 = 0.6117 | 4.24
313.15 K, x1 = 0.7174 | 3.79
313.15 K, x1 = 0.8625 | 3.01
318 K, x1 = 0.1032 | 2.671
318 K, x1 = 0.2004 | 3.036
318 K, x1 = 0.3011 | 3.241
318 K, x1 = 0.4069 | 3.322
318 K, x1 = 0.5008 | 3.611
318 K, x1 = 0.6002 | 3.27
318 K, x1 = 0.7016 | 3.137
318 K, x1 = 0.7852 | 2.853
318 K, x1 = 0.9025 | 2.446

CCCCC[NH3+].O=[N+]([O-])[O-] + O
298 K, 101 kPa
Conditions | viscosity [mPa·s]
x2 = 0.2 | 69.13
x2 = 0.299 | 47.41
x2 = 0.399 | 30.46
x2 = 0.499 | 20.51
x2 = 0.6 | 14.23
x2 = 0.702 | 9.1
x2 = 0.799 | 5.47
x2 = 0.9 | 2.71
x2 = 0.95 | 1.67

CCCCOC(C)=O + O
303.15 K, 101 kPa
Conditions | viscosity [mPa·s]
x2 = 0.0201 | 0.64
x2 = 0.04 | 0.641
x2 = 0.0599 | 0.639

CCCN(CCC)C(C)=O + O
298.16 K, 101 kPa
Conditions | viscosity [mPa·s]
x2 = 0.0688 | 2.38
x2 = 0.1822 | 2.71
x2 = 0.3049 | 3.12
x2 = 0.4342 | 3.66
x2 = 0.5515 | 4.26
x2 = 0.6896 | 4.87
x2 = 0.74 | 4.95
x2 = 0.762 | 4.95
x2 = 0.7891 | 4.88
x2 = 0.8742 | 3.94
x2 = 0.9163 | 2.96

C[NH2+]C(C)Cc1ccc2c(c1)OCO2.[Cl-] (centres undefined) + O
viscosity [mPa·s], 100 kPa
Conditions | 293.15 K | 298.15 K | 303.15 K | 308.15 K | 313.15 K
x1 = 0.001729 | 1.063 | 0.942 | 0.842 | 0.758 | 0.686
x1 = 0.003622 | 1.125 | 0.995 | 0.888 | 0.798 | 0.721
x1 = 0.00541 | 1.18 | 1.042 | 0.929 | 0.834 | 0.752
x1 = 0.006269 | 1.206 | 1.065 | 0.949 | 0.851 | 0.767
x1 = 0.0072 | 1.233 | 1.088 | 0.969 | 0.869 | 0.783

Cn1c(=O)c2c(ncn2C)n(C)c1=O + O
Conditions | viscosity [mPa·s]
293.15 K, 100 kPa, x1 = 0.000362 | 1.007
293.15 K, 100 kPa, x1 = 0.00054 | 1.01
293.15 K, 100 kPa, x1 = 0.00072 | 1.013
293.15 K, 100 kPa, x1 = 0.0009 | 1.018
293.15 K, 100 kPa, x1 = 0.00108 | 1.022
293.15 K, 100 kPa, x1 = 0.00126 | 1.027
293.15 K, 100 kPa, x1 = 0.00144 | 1.031
298.15 K, 100 kPa, x1 = 0.000362 | 0.892
298.15 K, 100 kPa, x1 = 0.00054 | 0.897
298.15 K, 100 kPa, x1 = 0.00072 | 0.901
298.15 K, 100 kPa, x1 = 0.0009 | 0.903
298.15 K, 100 kPa, x1 = 0.00144 | 0.916
298.15 K, 101 kPa, x1 = 9.11e-06 | 0.8903
298.15 K, 101 kPa, x1 = 1.822e-05 | 0.8906
298.15 K, 101 kPa, x1 = 7.288e-05 | 0.8912
298.15 K, 101 kPa, x1 = 0.0001457 | 0.8921
298.15 K, 101 kPa, x1 = 0.0001858 | 0.8928
298.15 K, 101 kPa, x1 = 0.0002 | 0.8925
298.15 K, 101 kPa, x1 = 0.0002277 | 0.8933
298.15 K, 101 kPa, x1 = 0.00045 | 0.8973
298.15 K, 101 kPa, x1 = 0.0004553 | 0.8967
298.15 K, 101 kPa, x1 = 0.000835 | 0.9028
298.15 K, 101 kPa, x1 = 0.0009102 | 0.904
298.15 K, 101 kPa, x1 = 0.00168 | 0.9204
298.15 K, 101 kPa, x1 = 0.001827 | 0.9238
303.15 K, 100 kPa, x1 = 0.000362 | 0.799
303.15 K, 100 kPa, x1 = 0.00054 | 0.802
303.15 K, 100 kPa, x1 = 0.00072 | 0.805
303.15 K, 100 kPa, x1 = 0.0009 | 0.809
303.15 K, 100 kPa, x1 = 0.00108 | 0.812
303.15 K, 100 kPa, x1 = 0.00126 | 0.815
303.15 K, 100 kPa, x1 = 0.00144 | 0.819
308.15 K, 100 kPa, x1 = 0.000362 | 0.72
308.15 K, 100 kPa, x1 = 0.00072 | 0.725
308.15 K, 100 kPa, x1 = 0.00144 | 0.738
308.15 K, 101 kPa, x1 = 0.0002 | 0.7216
308.15 K, 101 kPa, x1 = 0.000508 | 0.7219
308.15 K, 101 kPa, x1 = 0.000835 | 0.7263
308.15 K, 101 kPa, x1 = 0.00106 | 0.7314
308.15 K, 101 kPa, x1 = 0.00168 | 0.7421
308.15 K, 101 kPa, x1 = 0.001827 | 0.7443
310.15 K, 101 kPa, x1 = 9.11e-06 | 0.6928
310.15 K, 101 kPa, x1 = 1.822e-05 | 0.6933
310.15 K, 101 kPa, x1 = 7.288e-05 | 0.6952
310.15 K, 101 kPa, x1 = 0.0001457 | 0.6977
310.15 K, 101 kPa, x1 = 0.0001858 | 0.6998
310.15 K, 101 kPa, x1 = 0.0002277 | 0.7014
310.15 K, 101 kPa, x1 = 0.0004553 | 0.7104
310.15 K, 101 kPa, x1 = 0.0009102 | 0.7283
313.15 K, 100 kPa, x1 = 0.000362 | 0.652
313.15 K, 100 kPa, x1 = 0.00054 | 0.655
313.15 K, 100 kPa, x1 = 0.00072 | 0.657
313.15 K, 100 kPa, x1 = 0.0009 | 0.66
313.15 K, 100 kPa, x1 = 0.00108 | 0.663
313.15 K, 100 kPa, x1 = 0.00126 | 0.665
313.15 K, 100 kPa, x1 = 0.00144 | 0.669
318.15 K, 101 kPa, x1 = 0.0002 | 0.5982
318.15 K, 101 kPa, x1 = 0.000508 | 0.6031
318.15 K, 101 kPa, x1 = 0.000835 | 0.6101
318.15 K, 101 kPa, x1 = 0.00106 | 0.6182
318.15 K, 101 kPa, x1 = 0.00139 | 0.6272
318.15 K, 101 kPa, x1 = 0.00168 | 0.6353
318.15 K, 101 kPa, x1 = 0.001827 | 0.6393

From the CheMixHub viscosity set
